In PMC10138577, “Prenylated Flavonoids with Selective Toxicity against Human Cancers” (International Journal of Molecular Sciences, 2023):

Experiments:
Assay type in all cases: cell-based
[1] = system: T47D human breast ductal carcinoma cells; assay: In vitro antiproliferative assay (SRB), T47D; conditions: T47D, 72 h exposure, SRB, mean ± SD
Source text: (§1) The following established in vitro cell lines were applied: human breast adenocarcinoma (MCF-7 and SK-BR-3), human breast ductal carcinoma (T47D), human prostate adenocarcinoma (PC-3), human prostate carcinoma (Du145), human colorectal adenocarcinoma (HT-29 and LoVo), doxorubicin-resistant human colorectal adenocarcinoma (LoVo/Dx), human myelomonocytic leukemia (MV-4-11), human lung adenocarcinoma (A549), normal murine embryonic fibroblasts (BALB/3T3) and human lung microvascular endothelial (HLMEC). All the cell lines were obtained from the American Type Culture Collection (Rockville, MD, USA) except for LoVo and LoVo/DX, which were received from the Technical University of Gdańsk, Poland, courtesy of Prof. E. Borowski. All the cell lines were maintained in the Institute of Immunology and Experimental Therapy, Wroclaw, Poland. The cells were cultured in the following media: DMEM medium (BALB/3T3), Eagle medium (MCF-7, SK-BR-3, Du145), RPMI medium (HLMEC, MV-4-11) or RPMI 1640 + Opti-MEM (1:1) medium (A549, T47D, LoVo, LoVo/Dx, PC-3, HT-29). The DMEM medium was supplemented with 2 mM L-glutamine and 10% fetal bovine serum. The Eagle medium was supplemented with 4 mM L-glutamine, 10% fetal bovine serum, 1 mM sodium pyruvate for Du145 cells or 2 mM L-glutamine, 1% amino acids and 0.8 mg L^−1 of insulin for MCF-7 and SK-BR-3. The RPMI medium was supplemented with 2 mM L-glutamine, 1 mM sodium pyruvate and 10% fetal bovine serum. The RPMI 1640 + Opti-MEM (1:1) medium was supplemented with 2 mM L-glutamine, 5% fetal bovine serum (PC-3, A549) and 0.8 mg L^−1 insulin (T47D) or 1 mM sodium pyruvate (HT-29, LoVo, LoVoDx) and 0.1 ug/mL doxorubicin (LoVo/Dx). The media contained antibiotics: 100 µg mL^−1 streptomycin and 100 U mL^−1 penicillin. All the cell lines were incubated at 37 °C in a humid atmosphere saturated with 5% CO2.
(§2) The details of this technique were described by Skehan et al.. After 72 h of incubation with the tested compounds, the cells were fixed in situ by gently adding cold 50% trichloroacetic acid—TCA (50 µL per well). The plates were incubated at 4 °C for 1 h and then washed five times with tap water and air-dried. Next, the cellular material fixed with TCA was stained by adding 50 µL of 0.4% sulforhodamine B dissolved in 1% acetic acid to each well and incubating the wells for 30 min at room temperature. The unbound dye was removed by washing the plates five times with 1% acetic acid, whereas the stain bound to the cells was extracted with 150 µL of 10 mM unbuffered Tris base for determination of the optical density at a 540 nm wavelength in a computer-interfaced, 96-well microtiter plate reader–Multiskan FC photometer (Thermo Scientific, Waltham, MA, USA). The background optical density was measured in the wells filled with culture medium, without the cells.
(§3) Twenty-four hours before incubation with the tested compounds, the cells were seeded in 96-well plates (Sarstedt, Nümbrecht, Germany) at a density of 10^4 cells per well (10^3 cells per well for HLMEC) in 100 µL of culture medium. The analysis of the antiproliferative activity of the compounds was performed using sulforhothamine B (SRB) (for all the adherent cells) or 3-(4,5-dimethylthiazol-2-yl)-2,5-diphenyl tetrazolium bromide (MTT) (for the leukemia cells—MV-4-11). The details of this technique have been previously described by Skehan et al. and Antoszak et al.. An assay was performed after 72 h of exposure at varying concentrations (from 0.1 to 100 µg mL^−1) of xanthohumol (1), aurone (2) and the reference drug cisplatin. Each compound at each concentration was tested in a single experiment, which was repeated at least 3 times. […] The results were calculated as the IC50 (μM) (half maximal inhibitory concentration), i.e., the concentration of the tested agent that inhibits the proliferation of the cancer cell population by half. […]

[2] = system: human lung microvascular endothelial (HLMEC) cells; assay: In vitro cytotoxicity against normal cells (SRB), HLMEC; conditions: HLMEC normal cell line, 72 h exposure, SRB, mean ± SD; read-out: Antiproliferative activity IC50
Source text: as §1
(§4) The details of this technique were described by Skehan et al.. […] The unbound dye was removed by washing the plates five times with 1% acetic acid, whereas the stain bound to the cells was extracted with 150 µL of 10 mM unbuffered Tris base for determination of the optical density at a 540 nm wavelength in a computer-interfaced, 96-well microtiter plate reader–Multiskan FC photometer (Thermo Scientific, Waltham, MA, USA). The background optical density was measured in the wells filled with culture medium, without the cells.
(§5) Twenty-four hours before incubation with the tested compounds, the cells were seeded in 96-well plates (Sarstedt, Nümbrecht, Germany) at a density of 10^4 cells per well (10^3 cells per well for HLMEC) in 100 µL of culture medium. […] The results were calculated as the IC50 (μM) (half maximal inhibitory concentration), i.e., the concentration of the tested agent that inhibits the proliferation of the cancer cell population by half. […]

[3] = system: SK-BR-3 human breast adenocarcinoma cells; assay: In vitro antiproliferative assay (SRB), SK-BR-3; conditions: SK-BR-3, 72 h exposure, SRB, mean ± SD
Source text: as §1, §2, §3

[4] = system: PC-3 human prostate adenocarcinoma cells; assay: In vitro antiproliferative assay (SRB), PC-3; conditions: PC-3, 72 h exposure, SRB, mean ± SD
Source text: as §1, §2, §3

[5] = system: MV-4-11 human myelomonocytic leukemia cells; assay: In vitro antiproliferative assay (MTT), MV-4-11; conditions: MV-4-11, 72 h exposure, MTT, mean ± SD
Source text: as §1
The details of this technique were described by Antoszczak et al.. The proliferation inhibition of human myelomonocytic leukemia (MV-4-11) by the tested compounds was measured using the MTT assay. Thus, 20 µL of 3-(4,5-dimethylthiazol-2-yl)-2,5-diphenyl tetrazolium bromide solution was added to each well. Then, the plates were incubated for 4 h in a cell incubator to allow the cells to metabolize the yellow MTT to blue formazan. Next, 80 µL of lysing mixture (consisting of 67.5 g sodium dodecyl sulfate, 225 mL dimethylformamide and 275 mL distilled water) was added to each well. The plates were incubated for 24 h for the formazan crystals to be released from the cells and dissolved, and then the absorbance of each well was read on a 96-well microtiter plate reader (Multiskan FC photometer (Thermo Scientific)) at a 570 nm wavelength.
Twenty-four hours before incubation with the tested compounds, the cells were seeded in 96-well plates (Sarstedt, Nümbrecht, Germany) at a density of 10^4 cells per well (10^3 cells per well for HLMEC) in 100 µL of culture medium. The analysis of the antiproliferative activity of the compounds was performed using sulforhothamine B (SRB) (for all the adherent cells) or 3-(4,5-dimethylthiazol-2-yl)-2,5-diphenyl tetrazolium bromide (MTT) (for the leukemia cells—MV-4-11). The details of this technique have been previously described by Skehan et al. and Antoszak et al.. An assay was performed after 72 h of exposure at varying concentrations (from 0.1 to 100 µg mL^−1) of xanthohumol (1), aurone (2) and the reference drug cisplatin. Each compound at each concentration was tested in a single experiment, which was repeated at least 3 times. […] The results were calculated as the IC50 (μM) (half maximal inhibitory concentration), i.e., the concentration of the tested agent that inhibits the proliferation of the cancer cell population by half. The IC50 values and the mean values ± SD calculated for each experiment separately using GraphPad Prism software (GraphPad Software 9.1.0, San Diego, CA, USA) are presented in Table S1 in the Supplementary Materials.

[6] = system: normal murine embryonic fibroblasts (BALB/3T3); assay: In vitro cytotoxicity against normal cells (SRB), BALB/3T3; conditions: BALB3T3 normal cell line, 72 h exposure, SRB, mean ± SD; read-out: Antiproliferative activity IC50
Source text: as §1, §4, §5

[7] = system: A549 human lung adenocarcinoma cells; assay: In vitro antiproliferative assay (SRB), A549; conditions: A549, 72 h exposure, SRB, mean ± SD
Source text: as §1, §2, §3

[8] = system: MCF-7 human breast adenocarcinoma cells; assay: In vitro antiproliferative assay (SRB), MCF-7; conditions: MCF-7, 72 h exposure, SRB, mean ± SD
Source text: as §1, §2, §3

[9] = system: LoVo human colorectal adenocarcinoma cells; assay: In vitro antiproliferative assay (SRB), LoVo; conditions: LoVo, 72 h exposure, SRB, mean ± SD
Source text: as §1, §2, §3

[10] = system: LoVo/Dx doxorubicin-resistant human colorectal adenocarcinoma cells; assay: In vitro antiproliferative assay (SRB), LoVo/Dx; conditions: LoVo/Dx, 72 h exposure, SRB, mean ± SD
Source text: as §1, §2, §3

[11] = system: Du145 human prostate carcinoma cells; assay: In vitro antiproliferative assay (SRB), Du145; conditions: Du145, 72 h exposure, SRB, mean ± SD
Source text: as §1, §2, §3

[12] = system: HT-29 human colorectal adenocarcinoma cells; assay: In vitro antiproliferative assay (SRB), HT-29; conditions: HT-29, 72 h exposure, SRB, mean ± SD
Source text: as §1, §2, §3

With `N.N.[Cl][Pt][Cl]` [Cisplatin, cisplatin, reference compound] the IC50 [1] was 13.1 ± 5.58 µM, the IC50 [2] was 1.26 ± 0.1 µM and the IC50 [3] was 21.6 ± 3.93 µM. It also gave an IC50 [4] of 15.3 ± 2.28 µM, an IC50 [5] of 1.11 ± 0.36 µM and an IC50 [6] of 8.96 ± 2.15 µM. The IC50 [7] was 11.3 ± 1.36 µM, the IC50 [8] was 11.3 ± 0.99 µM and the IC50 [9] was 4.32 ± 0.9 µM. The IC50 [10] was 8.97 ± 1.45 µM, the IC50 [11] was 9.36 ± 0.63 µM and the IC50 [12] was 18.9 ± 2.25 µM.
